Data on 18 compounds can be found in ChEMBL document CHEMBL1140634, “The biology and chemistry of hyperlipidemia” (Bioorg Med Chem, 2007).

The nature of assay [1]: Inhibition of HMG-CoA synthase.
Assay [2] in a line: Inhibition of pig OSC. More on the design: species or system Sus scrofa.
For a further assay, the target named is T1, Lanosterol synthase (Candida albicans (strain SC5314 / ATCC MYA-2876) (Yeast), UniProt Q04782).
T1 sequence (Q04782 whole entry): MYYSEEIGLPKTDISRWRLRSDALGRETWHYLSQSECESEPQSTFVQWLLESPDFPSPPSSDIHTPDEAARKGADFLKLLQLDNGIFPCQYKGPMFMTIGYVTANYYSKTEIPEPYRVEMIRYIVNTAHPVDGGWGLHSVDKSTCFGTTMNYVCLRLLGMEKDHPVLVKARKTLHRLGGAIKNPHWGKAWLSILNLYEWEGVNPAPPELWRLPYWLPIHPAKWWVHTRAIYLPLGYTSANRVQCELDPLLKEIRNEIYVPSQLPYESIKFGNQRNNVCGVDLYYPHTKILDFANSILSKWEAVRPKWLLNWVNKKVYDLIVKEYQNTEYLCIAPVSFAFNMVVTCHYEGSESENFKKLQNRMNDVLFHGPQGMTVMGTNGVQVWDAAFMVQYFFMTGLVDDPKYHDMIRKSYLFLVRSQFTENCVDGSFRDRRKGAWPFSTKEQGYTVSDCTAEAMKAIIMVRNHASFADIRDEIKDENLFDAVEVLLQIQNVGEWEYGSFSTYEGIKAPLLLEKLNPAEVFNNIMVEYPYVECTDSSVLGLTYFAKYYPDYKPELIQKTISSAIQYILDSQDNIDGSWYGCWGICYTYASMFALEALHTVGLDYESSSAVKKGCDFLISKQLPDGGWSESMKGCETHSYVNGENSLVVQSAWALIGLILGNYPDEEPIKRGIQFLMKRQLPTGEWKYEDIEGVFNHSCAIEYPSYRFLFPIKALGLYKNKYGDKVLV

The nature of assay [3]: Inhibition of rat liver microsomal squalene synthase.
The species named for assay [4] is Rattus norvegicus. The assay can be described thus: Inhibition of [14C]cholesterol synthesis in rat liver after 1 hr. Format: functional.
Assay [5] has as its system Rattus norvegicus. The assay can be described thus: Reduction in LDL cholesterol in rat plasma at 20 mg/kg, po qd for 7 days. Format: functional. Also on record: scale not given: the % may be the effect or the level left.
Assay [6] is filed under the species Rattus norvegicus. The assay can be described thus: Reduction of cholesterol absorption in normal diet fed rat. The format is functional.
Assay [7] has as its target T2, Pancreatic triacylglycerol lipase (Homo sapiens, UniProt P16233).
T2 sequence (P16233 whole entry): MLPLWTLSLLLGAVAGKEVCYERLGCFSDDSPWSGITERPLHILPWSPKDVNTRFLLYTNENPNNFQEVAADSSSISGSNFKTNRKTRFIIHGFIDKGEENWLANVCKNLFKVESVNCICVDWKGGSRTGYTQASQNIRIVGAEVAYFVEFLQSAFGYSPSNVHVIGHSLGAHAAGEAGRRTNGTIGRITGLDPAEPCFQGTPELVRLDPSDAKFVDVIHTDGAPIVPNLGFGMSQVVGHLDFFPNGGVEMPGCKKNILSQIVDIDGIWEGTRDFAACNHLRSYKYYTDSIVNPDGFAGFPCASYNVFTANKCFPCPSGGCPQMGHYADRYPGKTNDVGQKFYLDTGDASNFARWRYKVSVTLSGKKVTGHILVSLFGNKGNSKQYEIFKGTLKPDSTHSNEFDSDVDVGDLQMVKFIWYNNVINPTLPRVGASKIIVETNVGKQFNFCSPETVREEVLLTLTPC
The assay can be described thus: Inhibition of pancreatic lipase.

The species entered for a further assay is Oryctolagus cuniculus. The assay can be described thus: Decrease in aortic arch lesions in cholesterol fed rabbit. The format is functional. More on the design: scale not given: the % may be the effect or the level left.
Assay [8] can be described thus: Inhibition of ferrous/ascorbate induced lipid peroxidation of microsomal membrane lipids. The format is functional.
Assay [9] deals with T3, Lanosterol 14-alpha demethylase (Rattus norvegicus, UniProt Q64654).
T3 sequence (Q64654 whole entry): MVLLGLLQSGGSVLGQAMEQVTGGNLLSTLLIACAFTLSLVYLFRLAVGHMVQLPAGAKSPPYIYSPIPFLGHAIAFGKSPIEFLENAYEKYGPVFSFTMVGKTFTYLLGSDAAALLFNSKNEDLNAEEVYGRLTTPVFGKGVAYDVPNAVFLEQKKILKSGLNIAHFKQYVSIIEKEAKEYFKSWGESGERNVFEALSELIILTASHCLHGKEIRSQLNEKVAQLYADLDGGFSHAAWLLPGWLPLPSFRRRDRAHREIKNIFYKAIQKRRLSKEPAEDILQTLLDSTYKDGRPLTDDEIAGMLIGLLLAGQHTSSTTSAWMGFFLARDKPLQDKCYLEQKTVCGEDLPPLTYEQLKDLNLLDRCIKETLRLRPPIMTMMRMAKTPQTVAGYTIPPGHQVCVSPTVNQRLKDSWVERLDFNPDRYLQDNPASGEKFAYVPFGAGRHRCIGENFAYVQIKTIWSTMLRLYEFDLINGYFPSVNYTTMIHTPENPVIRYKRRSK
The assay can be described thus: Inhibition of rat liver LDM.

The test system of another assay is Rhesus monkey. The assay can be described thus: Decrease in nonHDL-C level in rhesus monkey plasma at 50 mg/kg, bid for 21 days. The format is functional, Macaca mulatta. More on the design: scale not given: the % may be the effect or the level left.
The test system of assay [10] is HepG2. The assay can be described thus: Inhibition of cholesterol synthesis in human HepG2 cells. Format: functional.
Assay [11] relates to HepG2. The assay can be described thus: Inhibition of fatty acid synthesis in human HepG2 cells. The format is functional.
The species entered for assay [12] is Rattus norvegicus. The assay can be described thus: Inhibition of cholesterol synthesis in rat. The format is functional.
For assay [13], the species on record is Rattus norvegicus. The assay can be described thus: Inhibition of fatty acid synthesis in rat. The format is functional.
For assay [14], the system named is Rattus norvegicus. The assay can be described thus: Inhibition of cholesterol biosynthesis in po dosed Sprague-Dawley rat. Format: functional.
Assay [15] deals with T4, Lanosterol 14-alpha demethylase (Homo sapiens, UniProt Q16850).
T4 sequence (Q16850 whole entry): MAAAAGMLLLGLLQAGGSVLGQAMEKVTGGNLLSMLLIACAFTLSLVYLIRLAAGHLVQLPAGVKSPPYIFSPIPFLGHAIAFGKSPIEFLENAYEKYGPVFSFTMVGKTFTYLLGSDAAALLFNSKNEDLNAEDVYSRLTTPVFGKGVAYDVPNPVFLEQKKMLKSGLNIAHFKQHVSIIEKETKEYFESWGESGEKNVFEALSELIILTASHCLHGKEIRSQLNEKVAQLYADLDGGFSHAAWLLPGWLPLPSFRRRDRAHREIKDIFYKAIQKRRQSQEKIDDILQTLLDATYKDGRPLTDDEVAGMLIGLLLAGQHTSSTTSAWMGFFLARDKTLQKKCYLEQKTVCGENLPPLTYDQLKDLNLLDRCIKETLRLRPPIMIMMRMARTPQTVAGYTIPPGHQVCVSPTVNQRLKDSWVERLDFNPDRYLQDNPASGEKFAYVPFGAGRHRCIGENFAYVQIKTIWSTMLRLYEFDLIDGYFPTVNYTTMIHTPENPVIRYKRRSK
The assay can be described thus: Inhibition of LDM in human HepG2 cells at 2 nM. The format is cell-based.

Assay [16] has as its target T5, 3-hydroxy-3-methylglutaryl-coenzyme A reductase (Homo sapiens) (UniProt P04035).
T5 sequence (whole entry): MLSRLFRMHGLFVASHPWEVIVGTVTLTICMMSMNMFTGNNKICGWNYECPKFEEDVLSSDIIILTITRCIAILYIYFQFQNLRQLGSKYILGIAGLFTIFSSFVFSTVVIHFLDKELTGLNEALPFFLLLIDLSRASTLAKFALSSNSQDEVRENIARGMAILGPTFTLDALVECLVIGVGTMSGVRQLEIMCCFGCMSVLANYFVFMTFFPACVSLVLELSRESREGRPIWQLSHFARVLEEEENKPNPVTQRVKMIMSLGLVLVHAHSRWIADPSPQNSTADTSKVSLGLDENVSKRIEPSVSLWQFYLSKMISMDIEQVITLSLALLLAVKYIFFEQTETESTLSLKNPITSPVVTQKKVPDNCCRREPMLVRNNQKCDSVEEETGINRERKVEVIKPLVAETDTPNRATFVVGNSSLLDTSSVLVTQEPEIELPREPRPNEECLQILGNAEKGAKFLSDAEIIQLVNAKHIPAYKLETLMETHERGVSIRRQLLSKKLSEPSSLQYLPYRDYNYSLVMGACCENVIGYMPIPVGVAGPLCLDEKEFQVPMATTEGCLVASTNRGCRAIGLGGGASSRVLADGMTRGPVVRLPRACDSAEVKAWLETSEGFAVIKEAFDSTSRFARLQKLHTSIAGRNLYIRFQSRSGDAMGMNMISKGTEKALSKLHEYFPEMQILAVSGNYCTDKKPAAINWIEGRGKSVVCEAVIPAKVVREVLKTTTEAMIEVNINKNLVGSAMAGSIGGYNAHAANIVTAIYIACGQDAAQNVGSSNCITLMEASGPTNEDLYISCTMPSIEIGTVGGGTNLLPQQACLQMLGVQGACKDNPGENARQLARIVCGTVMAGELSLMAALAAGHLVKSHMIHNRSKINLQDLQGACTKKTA
The assay can be described thus: Inhibition of HMG-CoA reductase relative to control. The following applies: concentration not given here.

Description for Lanosterol synthase: Inhibition of Candida albicans OSC

Regarding `C/C=C/CCCC/C=C/C(=O)N[C@@H](C[C@@]1(O)C(=O)C2OC2C2OC21)C(=O)OC` (some centres undefined), the IC50 in [1] came to 31000 nM.

In assay [2], `CC(C)=CCCC(C)SCC/C(C)=C/CC/C=C(\C)CC/C=C(\C)CCC1OC1(C)C` (centres undefined) returned an IC50 of 50 nM and a Ki of 500 nM. It took 0.22 nM to reach half-maximal inhibition against Lanosterol synthase (IC50).

With `O[C@@]1(c2ccc(-c3ccc4ncccc4c3)cc2)CN2CCC1CC2`, the IC50 in assay [3] was found to be 0.6 nM. This compound gave an ED50 in the assay filed under Rattus norvegicus [4] of 5 mg/kg. Also, the Activity with Rattus norvegicus [5] was 43%.

Compound `CC1CCN(C(=O)Oc2ccc(Oc3ccccc3)cc2)CC1` returned an ED50 in the assay listed under Rattus norvegicus [6] of 10 mg/kg.

On to `CC(C)c1cc2c(c(O)c1O)[C@@]13CCCC(C)(C)[C@@H]1C[C@@H]2OC3=O` [CARNOSOL], for which inhibition in assay [7] was half-maximal at 13000 nM (IC50).

In the case of `CCC(CC)CC1(C(=O)Nc2ccccc2SC(=O)C(C)C)CCCCC1` [DALCETRAPIB], the Activity in the assay filed under Oryctolagus cuniculus was determined as 70%.

With `C/C=C/CCCC/C=C/C(=O)NC(CC1(O)C(=O)C2OC2C2OC21)C(=O)OC` (centres undefined), in assay [1], the IC50 was 150 nM.

Consider `CN1CC(O)(c2ccc(-c3ccccc3)cc2)OC2CCCCC21` (centres undefined), for which inhibition in assay [8] was half-maximal at 250000 nM (IC50).

The compound `CC(C)CCC[C@@H](C)[C@H]1C/C(=N\O)[C@@]2(C)[C@@H]3CC[C@@]4(C)C[C@@H](O)CC[C@]4(O)[C@H]3CC[C@]12C` had an IC50 in assay [9] of 55000 nM.

For the compound `F/C(COc1ccc2c(c1)[nH]c1ccccc12)=C1/CN2CCC1CC2`, the ED50 in the assay listed under Rattus norvegicus [4] worked out at 32 mg/kg. This compound also yielded an Activity in the assay on Rhesus monkey of 37%.

In [3], `COc1ccccc1/C(C)=C/CN(C)CCCC(P(=O)(O)O)P(=O)(O)O` showed an IC50 of 3.6 nM.

The compound `C/C=C/CCCC/C=C/C(=O)N[C@H](C[C@]1(O)C(=O)C2OC2C2OC21)C(=O)OC` (some centres undefined) displayed an IC50 in assay [1] of 98 nM.

`CCOc1ccc(CC(=O)OC[C@@H]2[C@H](CC)C(=O)N2Cc2ccc(S(=O)(=O)O)cc2)cc1OCC` gave an IC50 in assay [1] of 2 nM.

With `O=C(O)C[C@@]1(O)C[C@@H](CCCCCCc2ccc(Cl)cc2Cl)OC1=O`, the Inhibition in the assay on HepG2 [10] worked out at 91%; in the assay with HepG2 [11] it was 82%; in the assay filed under Rattus norvegicus [12], 76%; in the assay listed under Rattus norvegicus [13], 39%.

In turn, `COc1ccccc1/C(C)=C/CN(C)CCCC(P(=O)(O)OCOC(=O)C(C)(C)C)P(=O)(OCOC(=O)C(C)(C)C)OCOC(=O)C(C)(C)C` (centres undefined) came in with an ED50 in the assay on Rattus norvegicus [14] of 1.6 mg/kg.

Take `CC(C)CCC[C@@H](C)[C@H]1C=C[C@@]2(CC(=O)O)C3=C(CC[C@]12C)[C@@]1(C)CC[C@H](O)C(C)(C)[C@@H]1CC3`: 0.002 µM produced 50% inhibition in [15]. The inhibition in assay [16] stood at 30%.

Consider `O[C@]1(c2ccc(-c3ccc4ncccc4c3)cc2)CN2CCC1CC2`, for which it took 0.6 nM to reach half-maximal inhibition in [3] (IC50). In the assay filed under Rattus norvegicus [4], the ED50 was found to be 5 mg/kg. This compound also registered an Activity in the assay on Rattus norvegicus [5] of 50%.

Consider `CC(C)c1cc2c(c(O)c1O)[C@@]1(C(=O)O)CCCC(C)(C)[C@@H]1CC2` [CARNOSIC ACID], for which, in [7], the IC50 was determined as 36000 nM.

A word on the IC50: it is the concentration needed to halve the response being measured. In general, Ki refers to the equilibrium dissociation constant of an inhibitor or competing ligand from its target. One may read the Inhibition as the percentage by which the read-out fell short of the control. For orientation: inhibition means how much of the control response was suppressed.
